The source of these data is paper PMC11960969, “Mdga2 deficiency leads to an aberrant activation of BDNF/TrkB signaling that underlies autism-relevant synaptic and behavioral changes in mice” (PLOS Biology, 2025).

This assay has as its system hippocampal proteins. Description: DIA quantification proteomics, hippocampus of Mdga2+/- vs WT mice. Further details: species or system mouse. The note with it: S3 Table, downregulated DEPs; for log2FC: Mdga2+/- vs WT mouse hippocampus (HET-HIP-VS-WT-HIP), SE, pvalue and adj_pvalue in own columns c3-c5; for Class: regulation class of the protein, HET-HIP-VS-WT-HIP. How it is done: The hippocampus of 1.5–2-month-old Mdga2^ +/− male mice and their WT littermate controls was collected and sent to the BGI company for DIA quantification proteomics and data analysis. Briefly, samples were lysed and sonicated. After centrifugation, the supernatant was taken for quantification. Equal amounts of proteins (100 μg) per sample were subjected to trypsin enzymatic hydrolysis. After dryness, 10 μg enzymatic peptides per sample were separated by high-pH fractionation into a total of 10 fractions using high-performance liquid chromatography (HPLC) and freeze-dried. Data-dependent acquisition (DDA) fractions and DIA samples were analyzed by nano-LC–MS/MS. DDA data was identified by Andromeda search engine within MaxQuant. Identified results were used by Spectronaut^TM for spectral library construction. For DIA data, Spectronaut^TM used the constructed spectral library information to complete deconvolution and extraction, and used the mProphet algorithm to complete analytical quality control for obtaining reliable quantitative results. The mass spectrometry proteomics data have been deposited to the ProteomeXchange Consortium via the PRIDE [62] partner repository with the dataset identifier PXD050810. DEPs between comparison groups were identified based on the quantitative results, using the fold change >1.1 and p-value <0.05 as the criteria. After retrieval from the UniProtKB database, identified DEPs were processed for GO analysis by using DAVID (https://david.ncifcrf.gov/home.jsp) and Metascape database (https://metascape.org/gp/index.html).

On to sp¦A2A791¦ZMYM4_MOUSE, for which the log2FC was -2.935 and the Class result was “Down”.

For the substance sp¦A2AF47¦DOC11_MOUSE, the log2FC is on record as -1.478 and the Class entry is recorded as “Down”.

On to sp¦P27038¦AVR2A_MOUSE, for which the log2FC is on record as -1.635 and the Class entry is on record as “Down”.

Consider sp¦P97433¦ARG28_MOUSE, for which the log2FC was -1.853 and the Class result is given as “Down”.

Consider sp¦Q0VGY8¦TANC1_MOUSE, for which the log2FC was -2.363 and the Class result is “Down”.

As for sp¦Q3UQ44¦IQGA2_MOUSE, the log2FC is recorded as -1.377 and the Class result is reported as “Down”.

For the substance sp¦Q80YX1¦TENA_MOUSE, the log2FC is -1.6471 and the Class result is “Down”.

For the substance sp¦Q91WG7¦DGKG_MOUSE, the log2FC was -3.157 and the Class result is reported as “Down”.
